# Data: US4797506A, “6-substituted prostaglandins E1 and process for producing same” (Teijin Limited, priority 1984, dated 1989)
# Experiments:
# platelet aggregation [1] = conditions: compared with prostacyclin; cited from earlier work
# [2] = system: ulcer formation induced by indomethacin; test: Inhibition of indomethacin-induced ulcer formation in rats (antiulcerative effect); format: in vivo, Wister male rats; conditions: Rattus norvegicus, P.O., 30 minutes before oral indomethacin 20 mg/kg, ulcer length 5 hours after indomethacin
# Description: (i) Determination of Antiulcerative Effect
# The inhibiting effect on ulcer formation induced by indomethacin was examined by using rats. Wister male rats (7 weeks old, body weight 220 g) were abstained from food for 24 hours except giving water and then subjected to experiments.
# The sample compounds to be tested were dissolved in a phosphoric acid buffer (pH 7.4) containing 0.9% NaCl and the solution was orally administered to the rats. 30 minutes after the administration, indomethacin was orally administered to the rats at a dose of 20 mg/kg. 5 hours after the administration of the indomethacin, the rats were killed and the ulcer formation in the stomach was examined by determining the length of the ulcer formation portion under a stereomicroscope. From this measurement, the inhibition of ulcer formation by the sample compounds was calculated to determine the ED50 values.
# platelet aggregation [3] = test: In vitro platelet aggregation inhibition (ADP-induced, PRP); format: cell-based, Japanese white male domestic rabbits; conditions: Oryctolagus cuniculus, rabbit PRP, 10 μM ADP, 37° C., sample in ethanol diluted with phosphoric acid buffer pH 7.4, left at 0° C. for 4 hours, lowest concentration at which the inhibition is 50%, read-out: Anti-platelet aggregation effect IC50
# Description: (ii) In vitro PlateletAAggregation Inhibition Effect
# The in vitro platelet aggregation inhibition effect of the sample compounds to be tested was examined by using rabbits. That is, blood was collected from the ear vein of native Japanese white male domestic rabbits weighing 2.5 to 3.5 kg. The collected blood was 9 parts by volume per 1 part by volume of a 3.8% sodium citrate solution. The blood was centrifuged at 100 r.p.m. for 10 minutes. The upper layer portion was separated as PRP (rich in platelet blood plasma). The lower layer portion was further centrifuged at 2800 r.p.m. for 10 minutes to divide it into two layers. The upper layer portion was separated as PPP (poor in platelet blood plasma). The member of the platelet was diluted with PPP to 6 to 7×10^' /μl. After the adjustment, 25 μl of the sample compound was added to 250 μl of PRP, which was preincubated at a temperature of 37° C. for 2 minutes. […]
# When the activity of the sample compounds was determined, the ethanol solution was diluted with a phosphoric acid buffer (pH 7.4). The ethanol solution diluted with the buffer was left to stand at a temperature of 0° C. for 4 hours, after which the activity of the sample compounds was determined in the same manner.
# The agglutination inhibition was calculated by the following formula: [formula] […]
Structure (SMILES),platelet aggregation inhibition effect (platelet aggregation [1]),ED50 [2] [mg/kg],IC50 (platelet aggregation [3]) [µg/mL]
CCCCC[C@H](O)/C=C/[C@H]1[C@H](O)CC(=O)[C@@H]1CC(=O)CCCCC(=O)O [6-oxoprostaglandin E1],as strong as those of prostacyclin,,
CCCCC(C)(O)C/C=C/[C@H]1[C@H](O)CC(=O)[C@@H]1CC(CCCCC(=O)OC)[N+](=O)[O-] (stereo partly drawn),,0.022,> 100
